The values that follow come from US20090048258A1, “Amide Compound” (priority 2005, published 2009).

The term IC50 denotes the midpoint of a concentration-inhibition curve.

In the first assay the target is T1, Human DGAT1 (Homo sapiens, UniProt O75907).
T1 construct: my translation of the primer: M-G-DYKDDDD-GDRGSSRRR) (N); made in house; host or cells: Sf9 insect cells (recombinant baculovirus BAC-DGAT1, pFASTBAC1); microsome fraction
T1 sequence (O75907 1-488): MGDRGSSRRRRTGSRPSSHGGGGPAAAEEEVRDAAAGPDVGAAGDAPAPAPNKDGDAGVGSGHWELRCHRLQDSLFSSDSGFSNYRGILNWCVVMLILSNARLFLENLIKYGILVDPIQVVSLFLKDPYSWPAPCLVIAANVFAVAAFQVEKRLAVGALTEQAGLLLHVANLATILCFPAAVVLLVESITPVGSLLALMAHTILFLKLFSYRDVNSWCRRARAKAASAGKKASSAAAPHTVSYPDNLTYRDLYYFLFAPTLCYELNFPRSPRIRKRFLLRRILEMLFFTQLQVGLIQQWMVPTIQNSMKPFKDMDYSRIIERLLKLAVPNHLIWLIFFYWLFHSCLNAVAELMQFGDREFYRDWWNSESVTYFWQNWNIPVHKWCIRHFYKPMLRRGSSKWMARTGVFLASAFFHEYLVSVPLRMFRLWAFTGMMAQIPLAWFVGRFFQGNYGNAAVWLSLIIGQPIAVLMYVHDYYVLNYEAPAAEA
Put plainly: DGAT inhibitory activity: [14C]-triglyceride synthesis by DGAT1 high expression Sf9 microsome. Conditions: Table 1, 25 μM dioleoylglycerol, 25 μM [14C]-Oleoyl-CoA, 32° C., 15 min, read-out: DGAT inhibitory activity (according to IC50). Type of assay: biochemical. The protocol:
The primer base sequence is shown below.
The PCR reaction was conducted using a KOD-plus kit (TOYOBO). The obtained PCR product was electrophoresed on agarose gel (1%), the DNA fragment amplified by PCR was recovered from the gel, and then digested with restriction enzymes EcoRI and SpeI. […] Furthermore, using BAC-TO-BAC Baculovirus Expression System (Invitrogen), recombinant baculovirus BAC-DGAT1 was prepared.
SF9 cells were sown at 1×10^6 cells/ml on Sf-900II SEM medium (1 L, Invitrogen) containing 10% fetal calf serum (Trace), 50 mg/L gentamicin (Invitrogen) and 0.1% Pluronic F-68 (Invitrogen), and shaking culture was performed using a 2 L volume Erlenmeyer at 27° C., 100 rpm. After culturing for 24 hr, recombinant baculovirus BAC-DGAT1 (6.7 mL) was added, and the mixture was further cultured for 3 days. The culture medium was centrifuged at 2,000 rpm for 5 min to give virus-infected cells. The infected cells were washed with a phosphate buffered saline (Invitrogen), centrifuged under the same conditions, and the cells were preserved at −80° C. The cryopreserved cells were thawed in ice, suspended in buffer A (50 mM Tris buffer (30 mL, pH 7.4) containing 20% glycerol, 0.15 M NaCl) supplemented with Complete Protease Inhibitor (Boehringer), and ruptured 3 times with a Polytron homogenizer (Kinematica) at 20,000 rpm for 30 sec. The Sf9 microsome fractions were obtained by a conventional method and cryopreserved at −80° C. as a DGAT1 high expression Sf9 microsome.
As a DGAT1 reaction buffer, a solution having a composition of 100 mM Tris-HCl (pH 7.5), 250 mM sucrose, 150 mM MgCl2, 0.01% bovine serum albumin (BSA) was used. […] A mixture of 300 μL of chloroform:methanol (=1:2) was added to the reaction mixture to quench the reaction. The reaction mixture was sufficiently mixed and saline (200 μL) was added to partition the mixture between a chloroform layer (lower layer) and an aqueous layer (upper layer). The chloroform layer (50 μL) was spotted on a thin layer chromatography silica gel plate (TLC plate, Merck) and developed with a solvent (n-hexane:diethyl ether:ethyl acetate:acetic acid=74:15:15:1). The developed TLC plate was dried, contacted with a BAS imaging plate (manufactured by FUJIFILM) and measured with BAS2500 (manufactured by FUJIFILM) 16 hr later to numerically show the amount of [^14C]-triglyceride (TG amount) produced during the reaction. The inhibitory rate was calculated by the following formula:
Inhibitory rate (%)=(1−(TG amount in the case with addition of test compound−blank TG amount)/(control TG amount−blank TG amount))×100
The count of the triglyceride produced in the solution reacted without addition of the test compound was used as a “control TG amount”, and the count of the triglyceride produced in the solution reacted without addition of the test compound and DGAT1 high expression Sf9 microsome was used as a “blank TG amount”.
Turning to `O=C(CCC(=O)c1ccc2c(c1)CCO2)Nc1cc(-c2ccccc2)c(Cc2ccccc2)s1` [Example 49, N-(5-benzyl-4-phenyl-2-thienyl)-4-(2,3-dihydro-1-benzofuran-5-yl)-4-oxobutanamide], the IC50 was 10 to 50 nM.
Consider `COc1ccc(C(=O)CCC(=O)Nc2cc(-c3ccccc3)c(Cc3ccccc3)s2)cc1CCCO` [Example 54, N-(5-benzyl-4-phenyl-2-thienyl)-4-[3-(3-hydroxypropyl)-4-methoxyphenyl]-4-oxobutanamide], for which the IC50 lay within 50 to 500 nM.
The same measure, in the same setting: as for `O=C(O)Cc1ccc(C(=O)CCC(=O)Nc2nc(-c3ccccc3)c(Cc3ccccc3)s2)cc1` [Example 35], the figure is 500 to 10000 nM.
Regarding `CCOc1ccc(C(=O)CCC(=O)Nc2cc(-c3ccccc3)cc(-c3ccccc3)n2)cc1OCC` [Example 11, 4-(3,4-diethoxyphenyl)-N-(4,6-diphenylpyridin-2-yl)-4-oxobutanamide], the IC50 fell in the range of 10 to 50 nM.
For `CCOc1ccc(C(=O)CCC(=O)Nc2cc(-c3ccccc3)sc2-c2ccccc2)cc1OCC` [Example 18, 4-(3,4-diethoxyphenyl)-N-(2,5-diphenyl-3-thienyl)-4-oxobutanamide], the IC50 was in the range of 50 to 500 nM.
Consider `O=C(CCC(=O)c1ccc(OC(F)(F)F)cc1)Nc1nc(-c2ccccc2)c(Cc2ccccc2)s1` [Example 28, N-(5-benzyl-4-phenyl-1,3-thiazol-2-yl)-4-oxo-4-[4-(trifluoromethoxy)phenyl]butanamide], for which the IC50 is 50 to 500 nM.
Turning to `O=C(O)COc1ccc(C(=O)CCC(=O)Nc2nc(-c3ccccc3)c(Cc3ccccc3)s2)cc1` [Example 38], the IC50 was in the range of 500 to 10000 nM.
Still for that read-out and setting: as for `CCCc1ccc(C(=O)CCC(=O)Nc2nc(-c3ccccc3)c(Cc3ccccc3)s2)cc1` [Example 26, N-(5-benzyl-4-phenyl-1,3-thiazol-2-yl)-4-oxo-4-(4-propylphenyl)butanamide], the figure is 50 to 500 nM; as for `CCOc1ccc(C(=O)NCCNC(=O)c2cc(-c3ccccc3)n(-c3ccc(SC)cc3)c2C)cc1` [Example 65, N-{2-[(4-ethoxybenzoyl)amino]ethyl}-2-methyl-1-[4-(methylthio)phenyl]-5-phenyl-1H-pyrrole-3-carboxamide], 10 to 50 nM.

The assay is the same for the next values; noted with them: Table 2, 25 μM dioleoylglycerol, 25 μM [14C]-Oleoyl-CoA, 32° C., 15 min, read-out: DGAT inhibitory activity (according to IC50).
Take `CCOc1ccc(C(=O)CCC(=O)Nc2cc(-c3cc(C)c(O)c(C)c3)cc(-c3ccccc3)n2)cc1OCC` [Example 151, 4-(3,4-diethoxyphenyl)-N-[4-(4-hydroxy-3,5-dimethylphenyl)-6-phenylpyridin-2-yl]-4-oxobutanamide]: the IC50 is 10 to 50 nM.
On the same count and under the same terms, for `CCOc1ccc(C(=O)CCC(=O)Nc2cn(Cc3ccccc3)nc2-c2ccccc2)cc1` [Example 109, N-(1-benzyl-3-phenyl-1H-pyrazol-4-yl)-4-(4-ethoxyphenyl)-4-oxobutanamide] the value was 500 to 10000 nM.
Still for that read-out and setting: as for `O=C(CCC(=O)c1ccc2c(c1)CCO2)Nc1cc(-c2ccc(CO)cc2)cc(-c2ccccc2)n1` [Example 156, 4-(2,3-dihydro-1-benzofuran-5-yl)-N-{4-[4-(hydroxymethyl)phenyl]-6-phenylpyridin-2-yl}-4-oxobutanamide], the figure is 50 to 500 nM; as for `O=C(CCC(=O)c1ccc2c(c1)CCO2)Nc1cc(-c2cccc(C(=O)O)c2)cc(-c2ccccc2)n1` [Example 169, 3-(2-{[4-(2,3-dihydro-1-benzofuran-5-yl)-4-oxobutanoyl]amino}-6-phenylpyridin-4-yl)benzoic acid], 500 to 10000 nM; as for `O=C(O)CCc1ccc(-c2cc(NC(=O)CCC(=O)c3ccc4c(c3)CCO4)nc(-c3ccccc3)c2)cc1` [Example 157, 3-[4-(2-{[4-(2,3-dihydro-1-benzofuran-5-yl)-4-oxobutanoyl]amino}-6-phenylpyridin-4-yl)phenyl]propanoic acid], 500 to 10000 nM.
As to `CCOc1ccc(C(=O)CCC(=O)Nc2cc(-c3ccc(OCCNC(=O)OC(C)(C)C)cc3)c3ccccc3n2)cc1OCC` [Example 92, tert-butyl {2-[4-(2-{[4-(3,4-diethoxyphenyl)-4-oxobutanoyl]amino}quinolin-4-yl)phenoxy]ethyl}carbamate], the IC50 is 50 to 500 nM.
Same read-out and setting: as for `O=C(CCC(=O)c1ccc2c(c1)CCO2)Nc1cc(-c2ccc(N3CCOCC3)cc2)cc(-c2ccccc2)n1` [Example 160, 4-(2,3-dihydro-1-benzofuran-5-yl)-N-[4-(4-(morpholin-4-yl)phenyl)-6-phenylpyridin-2-yl]-4-oxobutanamide], the figure is 500 to 10000 nM; as for `CCOc1ccc(C(=O)CCC(=O)Nc2cc3ccccc3c(N3CCCCC3)n2)cc1OCC` [Example 85, 4-(3,4-diethoxyphenyl)-4-oxo-N-[1-(piperidin-1-yl)isoquinolin-3-yl]butanamide], 500 to 10000 nM.
As to `CCOc1ccc(C(=O)CCC(=O)Nc2cc(-c3ccccn3)c3ccccc3n2)cc1OCC` [Example 89, 4-(3,4-diethoxyphenyl)-4-oxo-N-[4-(pyridin-2-yl)quinolin-2-yl]butanamide], the IC50 lay in the range of 50 to 500 nM.
Regarding `O=C(CCC(=O)c1ccc2c(c1)CCO2)Nc1cc(-c2ccccc2)cc(-c2ccccc2)n1` [Example 104, 4-(2,3-dihydro-1-benzofuran-5-yl)-N-(4,6-diphenylpyridin-2-yl)-4-oxobutanamide], the IC50 lay in the range of 50 to 500 nM.
Still for that read-out and setting: for `CCOc1cc(C)c(C(=O)CCC(=O)Nc2cc(-c3ccccc3)c3cc(Cl)ccc3n2)cc1OCC` [Example 73, N-(6-chloro-4-phenylquinolin-2-yl)-4-(4,5-diethoxy-2-methylphenyl)-4-oxobutanamide] the value was 50 to 500 nM; for `CCOc1ccc(C(=O)CCC(=O)Nc2cc(-c3ccc(C4CCCCC4)cc3)cc(-c3ccccc3)n2)cc1OCC` [Example 110, N-[4-(4-cyclohexylphenyl)-6-phenylpyridin-2-yl]-4-(3,4-diethoxyphenyl)-4-oxobutanamide], 500 to 10000 nM.
Still for that read-out and setting: as for `CCOc1ccc(C(=O)CCC(=O)Nc2cc(-c3ccccc3)c3ccc(/C=C/C(=O)OC(C)(C)C)cc3n2)cc1OCC` [Example 82, tert-butyl (2E)-3-(2-{[4-(3,4-diethoxyphenyl)-4-oxobutanoyl]amino}-4-phenylquinoline-7-yl)acrylate], the figure is 50 to 500 nM; as for `CCOc1ccc(C(=O)CCC(=O)Nc2cc(-c3ccc(N(C)C)cc3)cc(-c3ccccc3)n2)cc1OCC` [Example 131, 4-(3,4-diethoxyphenyl)-N-{4-[4-(dimethylamino)phenyl]-6-phenylpyridin-2-yl}-4-oxobutanamide], 50 to 500 nM; as for `CCOc1ccc(C(=O)CCC(=O)Nc2cc(-c3ccccc3)c3ccc(/C=C/C(=O)O)cc3n2)cc1OCC` [Example 83, (2E)-3-(2-{[4-(3,4-diethoxyphenyl)-4-oxobutanoyl]amino}-4-phenylquinoline-7-yl)acrylic acid], 50 to 500 nM.
On the same count and under the same terms, as for `CCOc1ccc(C(=O)CCC(=O)Nc2cc(-c3cccc(O)c3)cc(-c3ccccc3)n2)cc1OCC` [Example 134, 4-(3,4-diethoxyphenyl)-N-[4-(3-hydroxyphenyl)-6-phenylpyridin-2-yl]-4-oxobutanamide], the figure is 10 to 50 nM; as for `Cn1cc(-c2cc(NC(=O)CCC(=O)c3ccc4c(c3)CCO4)nc(-c3ccccc3)c2)cn1` [Example 153, 4-(2,3-dihydro-1-benzofuran-5-yl)-N-[4-(1-methyl-1H-pyrazol-4-yl)-6-phenylpyridin-2-yl]-4-oxobutanamide], 500 to 10000 nM.
